One test deals with T1, B-Raf kinase (Homo sapiens, UniProt P15056).
T1 construct: GST (N); purchased Sigma
In words: Biochemical assay for B-Raf.1 (coupled pyruvate kinase/lactate dehydrogenase). As to conditions: read-out: BRAF.1 IC50. The procedure, abridged:
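Reaction rates over the 4–5 h window of a continuous 6 h, 30 °C read were converted to percent inhibition and fitted for IC50. B-Raf (0.13 nM) phosphorylated 30.1 nM MEK with 1 mM ATP; ADP coupled via PK/LDH to NADH loss at 340 nm, 1% DMSO final.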

Another test has as its system A375 cells. In words: A375 cell proliferation assay (1), resazurin, 96-well. The conditions noted are these: Homo sapiens, A-375, inhibition of cell proliferation. It counts as cell-based. The procedure, abridged: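 Viability was read by resazurin fluorescence at 540 nm excitation and 600 nm emission, using a 440 μM solution added for 5–6 h at the end of culture. IC50 came from the curve fit.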
For orientation: Alamar Blue is a resazurin reagent that responds to reducing activity.

A further test has as its system Miapaca-2 cells. The experiment in a line: MiaPaca-2 cell proliferation assay (1), resazurin, 96-well. The format is cell-based. As to conditions: Homo sapiens, MIA PaCa-2, inhibition of cell proliferation. The procedure, abridged:
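Three thousand cells per well in DMEM with 10% FBS and 2.5% horse serum exposed to serially diluted compound in triplicate for 67-72 h at 37 °C, 5% CO2. Viability by resazurin (additional 5-6 h), fluorescence ex 540/em 600 nm; IC50 calculated.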

In general, IC50 refers to the concentration needed to halve the response being measured.

T1 sequence (P15056 416-766): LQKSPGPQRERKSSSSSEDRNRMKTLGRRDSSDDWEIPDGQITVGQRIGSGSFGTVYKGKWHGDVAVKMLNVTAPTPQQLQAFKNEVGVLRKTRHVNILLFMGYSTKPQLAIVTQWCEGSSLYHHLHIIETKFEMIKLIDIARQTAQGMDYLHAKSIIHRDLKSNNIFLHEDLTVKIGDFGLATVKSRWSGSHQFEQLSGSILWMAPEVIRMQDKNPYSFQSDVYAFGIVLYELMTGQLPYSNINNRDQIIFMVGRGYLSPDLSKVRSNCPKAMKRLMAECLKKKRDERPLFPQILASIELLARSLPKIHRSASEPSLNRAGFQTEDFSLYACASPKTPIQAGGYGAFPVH

Consider `CC(=O)Nc1cc(-c2cc(-c3cc(NC(=O)NCC45CC(F)(C4)C5)c(F)cc3C)cc(OCCO)n2)ccn1` [Example 52], for which the half-inhibitory concentration (IC50) was ≤ 100 nM at B-Raf kinase, 1000 to 10000 nM with A375 cells and 1000 to 10000 nM with Miapaca-2 cells.

Regarding `CC(=O)Nc1cc(-c2cc(-c3cc(NC(=O)NCCC4(C)CC4)ccc3C)cc(N3CCOCC3)n2)ccn1` [Example 57], the half-inhibitory concentration (IC50) at B-Raf kinase was ≤ 100 nM; in the test with A375 cells, 100 to 500 nM; in the test with Miapaca-2 cells, 1000 to 10000 nM.

As for `COC(=O)Nc1cc(-c2nccc(-c3cc(NC(=O)N4CCC(C(F)(F)F)C4)ccc3C)n2)ccn1` (stereo not drawn) [Example 193], the IC50 was ≤ 100 nM on B-Raf kinase and 1000 to 10000 nM with A375 cells.

`CC(=O)Nc1cc(-c2cc(-c3cc(NC(=O)NC4CCC(F)(F)CC4)c(F)cc3C)cc(OCCO)n2)ccn1` [Example 63]: the half-inhibitory concentration (IC50) on B-Raf kinase was ≤ 100 nM; with A375 cells, ≤ 100 nM; with Miapaca-2 cells it was 1000 to 10000 nM.

In the case of `CNC(=O)c1cc(-c2cc(-c3cc(NC(=O)Nc4ccnc(C(C)(C)C#N)c4)ccc3C)ccn2)ccn1` [Example 69], the concentration for half-maximal inhibition (IC50) on B-Raf kinase was ≤ 100 nM; with A375 cells, 1000 to 10000 nM; in the test with Miapaca-2 cells, 1000 to 10000 nM.

With `CNC(=O)c1cc(-c2cnnc(-c3cc(NC(=O)N4CC[C@@H](OC(F)(F)F)C4)ccc3C)c2)ccn1` [Example 182], the results for the IC50 at B-Raf kinase and in the test with A375 cells were 500 to 1000 nM and 1000 to 10000 nM, respectively.

Turning to `CC(=O)Nc1cc(-c2cc(-c3cc(NC(=O)N[C@H]4C[C@](C)(F)C4)ccc3C)cc(OCCO)n2)ccn1` [Example 49], the IC50 at B-Raf kinase was ≤ 100 nM; in the test with A375 cells it was 1000 to 10000 nM; with Miapaca-2 cells, 1000 to 10000 nM.

`CC(=O)Nc1cc(-c2cc(-c3cc(NC(=O)NCCC(C)(C)C#N)c(F)cc3C)cc(C3CC3)n2)ccn1` [Example 59]: the half-inhibitory concentration (IC50) on B-Raf kinase is ≤ 100 nM; with A375 cells it was 1000 to 10000 nM; with Miapaca-2 cells, 1000 to 10000 nM.

Consider `Cc1ccc(NC(=O)NCCC(C)(C)C)cc1-c1ccnc(N2CCOCC2)c1` [Example 18], for which the IC50 was ≤ 100 nM on B-Raf kinase, 1000 to 10000 nM in the test on A375 cells and 1000 to 10000 nM with Miapaca-2 cells.

With `COC[C@H]1CCN(C(=O)Nc2cnc(C)c(-c3ccnc(-c4ccnc(NC(=O)OC)c4)c3)c2)C1` [Example 176], the half-maximal inhibitory concentration (IC50) on B-Raf kinase is > 1000 nM; in the test with A375 cells it was 1000 to 10000 nM.

For the molecule `COC(C)(C)CCNC(=O)Nc1ccc(C)c(-c2cc(-c3cnn(C)c3)nc(N3CCOCC3)c2)c1` [Example 38], the IC50 on B-Raf kinase is ≤ 100 nM; with A375 cells, 1000 to 10000 nM; in the test with Miapaca-2 cells, 1000 to 10000 nM.

With `COC(=O)Nc1cc(-c2cc(-c3cc(NC(=O)NCCC4(C)CC4)ccc3F)cc(OCCO)n2)ccn1` [Example 187], the IC50 is ≤ 100 nM on B-Raf kinase and 1000 to 10000 nM in the test on A375 cells.

`CNC(=O)c1cc(-c2cc(-c3cc(NC(=O)NC4CCCCC4)c(F)cc3C)cc(OCCO)n2)ccn1` [Example 205]: the half-maximal inhibitory concentration (IC50) on B-Raf kinase was ≤ 100 nM; with A375 cells it was 100 to 500 nM; in the test with Miapaca-2 cells it was 1000 to 10000 nM.

As for `COC[C@@H]1CCN(C(=O)Nc2cnc(C)c(-c3ccnc(-c4ccnc(NC(=O)OC)c4)c3)c2)C1` [Example 179], the results for the half-inhibitory concentration (IC50) on B-Raf kinase and in the test with A375 cells were > 1000 nM and 1000 to 10000 nM, respectively.

Take `CNC(=O)c1cc(-c2cnnc(-c3cc(NC(=O)N4CC[C@@H](OC)C4)ccc3C)c2)ccn1` [Example 181]: the half-inhibitory concentration (IC50) was > 1000 nM on B-Raf kinase and 1000 to 10000 nM with A375 cells.

For the molecule `CNC(=O)c1cc(-c2cnnc(-c3cc(NC(=O)N4CCC(C(C)(C)C)C4)ccc3C)c2)ccn1` (stereo not drawn) [Example 180], the half-inhibitory concentration (IC50) at B-Raf kinase is 500 to 1000 nM; in the test with A375 cells, 100 to 500 nM.

Take `COC(=O)Nc1cc(-c2cnnc(-c3cc(NC(=O)N4CCC(C(C)(C)C)C4)ccc3C)c2)ccn1` (stereo not drawn) [Example 185]: the IC50 at B-Raf kinase and in the test on A375 cells was 100 to 500 nM throughout.

On to `COC(=O)Nc1cc(-c2cc(-c3cc(NC(=O)NCCC4(C)CC4)c(F)cc3F)cc(OCCO)n2)ccn1` [Example 188], for which the figures for the concentration for half-maximal inhibition (IC50) on B-Raf kinase and in the test on A375 cells were ≤ 100 nM and 500 to 1000 nM, respectively.

Take `Cc1ccc(NC(=O)Nc2cnc(C(F)(F)F)s2)cc1-c1cc(OCCO)nc(N2CCOCC2)c1` [Example 43]: the values for the concentration for half-maximal inhibition (IC50) at B-Raf kinase, in the test on A375 cells and in the test with Miapaca-2 cells were 100 to 500 nM, ≤ 100 nM and 100 to 500 nM, respectively.

Consider `Cc1ccc(NC(=O)Nc2ccnc(C(C)(C)C#N)c2)cc1-c1ccnc(-c2ccnc(C(=O)NC3CC3)c2)c1` [Example 68], for which the results for the IC50 at B-Raf kinase, in the test on A375 cells and with Miapaca-2 cells were ≤ 100 nM, 1000 to 10000 nM and 1000 to 10000 nM, respectively.

With `Cc1ccc(NC(=O)Nc2cn(C)nc2C(F)(F)F)cc1-c1cc(OCCO)nc(N2CCOCC2)c1` [Example 42], the IC50 at B-Raf kinase is > 1000 nM; with A375 cells, 1000 to 10000 nM; in the test with Miapaca-2 cells it was 1000 to 10000 nM.

In the case of `Cc1ccc(NC(=O)N[C@H]2C[C@](C)(F)C2)cc1-c1cc(OCCO)nc(-c2ccnc(NC(=O)CN(C)C)c2)c1` [Example 50], the half-inhibitory concentration (IC50) at B-Raf kinase was ≤ 100 nM; with A375 cells it was 1000 to 10000 nM; in the test with Miapaca-2 cells, 1000 to 10000 nM.

In the case of `CC(=O)Nc1cc(-c2cc(-c3cc(NC(=O)NCCC4(C)CC4)c(F)cc3C)cc(NCCO)n2)ccn1` [Example 175], the results for the concentration for half-maximal inhibition (IC50) on B-Raf kinase and in the test on A375 cells were ≤ 100 nM and 100 to 500 nM, respectively.

`COC(C)(C)CCNC(=O)Nc1cc(-c2cnnc(-c3ccnc(NC(=O)C4CC4)c3)c2)c(C)cc1F` [Example 173]: the IC50 on B-Raf kinase is ≤ 100 nM; in the test on A375 cells, 500 to 1000 nM.

With `CC(=O)Nc1cc(-c2cc(-c3cc(NC(=O)NCCC4(C)CC4)c(F)cc3C)cc(C)n2)ccn1` [Example 55], the figures for the 50% inhibitory concentration (IC50) on B-Raf kinase, in the test on A375 cells and with Miapaca-2 cells were ≤ 100 nM, 1000 to 10000 nM and 1000 to 10000 nM, respectively.

Regarding `Cc1cc(F)c(NC(=O)NCCC2(C(F)(F)F)CC2)cc1-c1cc(OCCO)nc(C2CCOCC2)c1` [Example 24], the half-inhibitory concentration (IC50) is ≤ 100 nM on B-Raf kinase, 100 to 500 nM in the test with A375 cells and 1000 to 10000 nM with Miapaca-2 cells.

With `COC(C)(C)CCNC(=O)Nc1ccc(C)c(-c2cc(-c3ccnc(NC(C)=O)c3)n(C)c(=O)c2)c1` [Example 60], the 50% inhibitory concentration (IC50) on B-Raf kinase is > 1000 nM; with A375 cells, 1000 to 10000 nM; in the test on Miapaca-2 cells, 1000 to 10000 nM.

In the case of `CC(=O)Nc1cc(-c2cc(-c3cc(NC(=O)Nc4ccc(C(F)(F)F)cc4)cnc3C)ccn2)ccn1` [Example 48], the 50% inhibitory concentration (IC50) at B-Raf kinase was ≤ 100 nM; in the test with A375 cells, 1000 to 10000 nM; in the test on Miapaca-2 cells, 1000 to 10000 nM.

With `CNC(=O)c1cc(-c2cnnc(-c3cc(NC(=O)N4CCC(C(C)(C)C)C4)cnc3C)c2)ccn1` (stereo not drawn) [Example 184], the IC50 at B-Raf kinase is > 1000 nM; with A375 cells, 1000 to 10000 nM.

For the molecule `CC(=O)Nc1cc(-c2cc(-c3cc(NC(=O)NC4CCCCC4)c(F)cc3C)cc(OCCO)n2)ccn1` [Example 53], the IC50 at B-Raf kinase was ≤ 100 nM; with A375 cells it was ≤ 100 nM; with Miapaca-2 cells, 500 to 1000 nM.

On to `CC(=O)Nc1cc(-c2cc(-c3cc(NC(=O)NCCC4(C)CC4)c(F)cc3C)cc(C3CC3)n2)ccn1` [Example 51], for which the IC50 is ≤ 100 nM at B-Raf kinase, 1000 to 10000 nM with A375 cells and 1000 to 10000 nM in the test with Miapaca-2 cells.

Take `Cc1ccc(NC(=O)N[C@H]2C[C@](C)(F)C2)cc1-c1cc(-c2ccnc(NC(=O)C3CC3)c2)nc(C2CC2)c1` [Example 61]: the IC50 is ≤ 100 nM on B-Raf kinase, 1000 to 10000 nM in the test on A375 cells and 1000 to 10000 nM in the test on Miapaca-2 cells.

Turning to `COC(C)(C)CCNC(=O)Nc1cc(-c2cccc(-c3ccnc(NC(C)=O)c3)c2)c(C)cc1F` [Example 71], the IC50 was ≤ 100 nM at B-Raf kinase, 1000 to 10000 nM in the test with A375 cells and 1000 to 10000 nM in the test on Miapaca-2 cells.

Take `CNC(=O)c1cc(-c2cnnc(-c3cc(NC(=O)N4CC[C@H](OC)C4)ccc3C)c2)ccn1` [Example 177]: the concentration for half-maximal inhibition (IC50) at B-Raf kinase is > 1000 nM; with A375 cells, 1000 to 10000 nM.

As for `COC(=O)Nc1cc(-c2nc(OCCO)cc(-c3cc(NC(=O)NC4CC(C)(C)C4)cnc3C)n2)ccn1` [Example 174], the IC50 was in the range of 100 to 500 nM on B-Raf kinase and 1000 to 10000 nM in the test with A375 cells.

Turning to `CC(=O)Nc1cc(-c2cc(-c3cc(NC(=O)NC4CC(C)(C)C4)c(F)cc3C)cc(OCCO)n2)ccn1` [Example 47], the IC50 on B-Raf kinase was ≤ 100 nM; in the test with A375 cells, ≤ 100 nM; in the test with Miapaca-2 cells, 500 to 1000 nM.

As to `CNC(=O)c1cc(-c2cccc(-c3cc(NC(=O)NCCC(C)(C)OC)c(F)cc3C)c2)ccn1` [Example 72], the figures for the IC50 on B-Raf kinase, in the test with A375 cells and with Miapaca-2 cells were 100 to 500 nM, 1000 to 10000 nM and 1000 to 10000 nM, respectively.

On to `CC(=O)Nc1cc(-c2cc(-c3cc(NC(=O)NCCC4(C(F)(F)F)CC4)c(F)cc3C)cc(C3CC3)n2)ccn1` [Example 54], for which the IC50 on B-Raf kinase is ≤ 100 nM; in the test with A375 cells it was 100 to 500 nM; with Miapaca-2 cells, 1000 to 10000 nM.

On to `CNC(=O)c1cc(-c2cnnc(-c3cc(NC(=O)N4CCC5(CC5)C4)ccc3C)c2)ccn1` [Example 178], for which the IC50 on B-Raf kinase is > 1000 nM; in the test on A375 cells, 1000 to 10000 nM.

Values taken from patent US20230357179A1, “RAF KINASE INHIBITORS AND METHODS OF USE THEREOF” (Deciphera Pharmaceuticals, LLC, priority 2021, published 2023).
